Columns and labels:
[1] = target: T1, cellodextrin phosphorylase (CDP) (Acetivibrio thermocellus, UniProt Q93HT8); test: X-ray crystallography, […] Å; assay type: binding
T1 construct: gene cdp-ym4

[2] = target: T1, cellodextrin phosphorylase (CDP); test: capillary electrophoresis competition assay of glucan polymerization; assay type: biochemical
[3] = substrate: OC[C@H]1O[C@@H](Oc2ccccc2)[C@H](O)[C@@H](O)[C@@H]1O; test: phosphate release assay, Michaelis-Menten fit; assay type: biochemical, Acetivibrio thermocellus; conditions: acceptor, synthetic direction, 10 mM Glc-1-P, HEPES 50 mM pH 7.5, 21 °C

O=P(O)(O)O [phosphate]
X-ray crystallography, 3.0 Å ([1]; crystal grown with 10 mM phosphate buffer, active site, adjacent to the glucan): interpreted as a cellotetraose molecule with an adjacent phosphate ion

O=P(O)(O)O[C@H]1O[C@H](CO)[C@@H](O)[C@H](O)[C@@H]1O [Man-1-P]
capillary electrophoresis competition assay of glucan polymerization ([2]; 10 mM Man-1-P vs 1 mM Glc-1-P and 2 μM (β-1→4-Glc)6-APTS, HEPES 50 mM pH 7.5, 40 °C, competitive with donor): Man-1-P caused a great decrease in glucan oligomer length

N[C@H]1[C@H](O[C@H]2[C@H](O)[C@@H](O)[C@H](O[C@H]3[C@H](O)[C@@H](O)C(O)O[C@@H]3CO)O[C@@H]2CO)O[C@H](CO)[C@@H](O)[C@@H]1O (stereo partly drawn) [(β-1→4-GlcN(Glc)2)]
capillary electrophoresis competition assay of glucan polymerization ([2]; 5 mM trisaccharide vs 0.5 mM (β-1→4-Glc)3-APTS, 50 mM Glc-1-P, HEPES 50 mM pH 7.6, 40 °C, acceptor competition, also an acceptor substrate): the average extension of (β-1→4-Glc)3-APTS reduced substantially

OC[C@H]1O[C@@H](O[C@H]2[C@H](O)[C@@H](O)[C@H](O[C@H]3[C@H](O)[C@@H](O)[C@H](O[C@H]4[C@H](O)[C@@H](O)C(O)O[C@@H]4CO)O[C@@H]3CO)O[C@@H]2CO)[C@H](O)[C@@H](O)[C@@H]1O (stereo partly drawn) [(β-1→4-Glc)4]
X-ray crystallography, 3.0 Å ([1]; crystal soaked with 10 mM cellohexaose, density modelled as cellotetraose, with phosphate, active site subsites −1 to +3): additional electron density in the active site cleft, which was interpreted as a cellotetraose molecule

OC1OC[C@@H](O[C@@H]2OC[C@@H](O[C@@H]3OC[C@@H](O)[C@H](O)[C@H]3O)[C@H](O)[C@H]2O)[C@H](O)[C@H]1O (stereo partly drawn) [(β-1→4-Xyl)3]
capillary electrophoresis competition assay of glucan polymerization ([2]; 10 mM xylotriose vs 13.5 μM (β-1→4-Glc)6-APTS, 10 mM Glc-1-P, HEPES 50 mM pH 7.5, 40 °C, acceptor competition): suggesting binding of xylotriose to the active site of the enzyme

B1: cellodextrin phosphorylase (CDP) (Acetivibrio thermocellus) (protein)
chain: MITKVTARNNKITPVELLNQKFGNKINLGNFADAVFTDAAFKNVAGIANLPMKAPVMQVLMENCIVSKYLKQFVPDRSVCFVEEGQKFYIVLEDGQKIEVPEDVNKALKATVSDVKHWAGYLTEDGEHVIDLLKPAPGPHFYVNLLIGNRLGFKRTLQTTPKSVVDRFGRGSFRSHAATQVLATRFDMRQEENGFPANRQFYLYEDGKQIFYSALIDDNIVEATCKHSCNRTVIKYKTACNLEITRTIFLVPHKKGFPLATELQRIEIKNASDKARNLSITYTGMFGTGAVHAIFEDVTYTNVIMQSAALYNDKGEFIGITPDYYPEEFKQDTRFVTMIVRNGDEKSFPQSFCTDYNDFVGTGTLEHPAGGCNLNNKLNRKGPGFFALGAPFTVEPGKTVIIDTFTGLSSSKDNENYSDAVMLRELDNLLRYFEKSESVEETLNEIINFHENYGKYFQFNTGNKLFDSGFNRNLAFQVLYQTFMSRSFGQTQKGYREIGFREIQDLFASMYYFINIGYQDFVKELLFEWTANVYKMGYANHNFYWVGKQPGLYSDDSLWLLQAYYRYIIYTKDTSVLNEEVPVADGNNEKRAVRETLKAIIQYSACISVGDHGLPLLDLADWNDCLKIASNSIDGATKEKLYYEQLKKTNGKYGDRFMSDYSESVMNAFLLKLAIDHLAEIATLDNDTQLAQQMSELSKEVTDRIQKHAWKENFFARVLINRYKDGSYTYLGAKGDKLSADPNIDGVYFLNSFAWSVLSDVATDEQIAIMVDVIKKHLLTPYGLRLVTPADLNKIANDTATGHYFFGDRENGAVFKHASMMAVAALIKAAKKVKDNELAKEMARIAYFMIDLVLPYKNLENPFQVAGNPRICTQYINTDTGENIGPLLSGTATWLNLNLISLAGIEYTRDGISFNPILREEETQLNFTLKAPKCSYKFSITKPVGFARMESSEYELFVDGQKIDNTVIPMYTDEKEHIVTLKFK
Km [3]: 24 ± 13 mM | kcat [3]: 15 ± 6.3 s⁻¹ | kcat/Km [3]: 630 M⁻¹ s⁻¹

From PMC5667895, “Cellodextrin phosphorylase from Ruminiclostridium thermocellum: X-ray crystal structure and substrate specificity analysis” (Carbohydrate Research, 2017)
